# Assay results as given in patent publication US12139492B2 (Endotarget Inc., priority 2021, dated 2024).
# Columns and labels:
# Mino cells = assay: Antiproliferative effect, MTS cell viability assay, Mino cells; assay type: cell-based; conditions: Homo sapiens, MINO, Mino mantle cell lymphoma cells; read-out: IC50 (anti-proliferation) Mino cells
# Summary of the method: (§1)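 Absorbance at 490 nm of formazan, formed by metabolically active cells from MTS tetrazolium, served as the viability measure after a 72 h treatment across a 0.001–10 μM concentration series plus untreated control.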
# JeKo-1 cells = assay: Antiproliferative effect, MTS cell viability assay, JeKo-1 cells; assay type: cell-based; conditions: Homo sapiens; JeKo-1 mantle cell lymphoma cells; read-out: IC50 (anti-proliferation) JeKO-1 cells
# Summary of the method: as §1
# [1] = test system: primary human CLL cell CTG-3763; assay: Ex vivo cell inhibition, Cell Titer Glo viability, primary CLL cell CTG-3763; assay type: cell-based; conditions: 10 nM to 50 μM, 6 days
# Protocol: (§2) Primary human Human Chronic Lymphocytic Leukemia cell lines were used to measure ex vivo cell inhibition by exemplary compounds. The cells were incubated with test compounds at a dose range of 10 nM to 50 μM for 6 days. Cell Titer Glo data were gathered for cell viability evaluation.
# [2] = test system: primary human CLL cell CTG-3754; assay: Ex vivo cell inhibition, Cell Titer Glo viability, primary CLL cell CTG-3754; assay type: cell-based; conditions: 10 nM to 50 μM, 6 days
# Protocol: as §2
# BTK [3] = target: T1, BTK (Homo sapiens, UniProt Q06187); assay: BTK degradation, DC50 and Dmax of Table 1 (cell line not given); assay type: cell-based; parameters: endogenous in cells; conditions: for DC50: concentration giving 50% reduction of BTK expression level
# BTK [4] = target: T1, BTK; assay: Degradation of BTK protein in Namalwa cells (Western blot; DC50, Dmax); conditions: Namalwa B lymphocyte cells, Western blot; for degradation of BTK protein: various concentrations, 24 hours
# MOLT-4 cell = assay: Cell apoptosis by flow cytometry, MOLT-4 cells; assay type: cell-based; conditions: 1 and 10 μM, 72 hours, in vitro
# Protocol: (§3) Cell apoptosis induced by treatment of exemplary compounds was measured by flow cytometry.
# (§4) Flow cytometry analysis was performed after staining of the cells with PI and 7-AAD. For PI staining, 0.5×10^6 cells/mL were centrifuged at 1500 rpm for 5 min, supernatant was removed, and cell pellet was gently suspended with 1 ml Krishan buffer and then incubated at 4° C. in the dark for 60 min. Apoptosis was determined by Cytomic's FC500 Flow Cytometer (Beckman Coulter) and the data were analyzed by Win Cycle Multicycle Software (De Novo Software). For the 7-AAD staining, 0.5×10^6 cells were washed with PBS and centrifuged at 1500 rpm for 5 min. Supernatant was removed and the cell pellet was suspended in 100 μL PBS. 10 μL 7-AAD was added to each tube and incubated for 20 min at room temperature in the dark. 7-AAD labeled-cells were analyzed by Cytomic's FC500 Flow Cytometry (Beckman Coulter) and FCS Express Flow Cytometry Data Analysis software (DeNovo Software). For morphologic analysis of apoptosis by light microscopy, cells were incubated with Mock or with […] for 72 h. Control or drug treated-cells were cytospun on glass slides, stained with Wright-Giemsa, and then examined by light microscopy. Morphological changes associated with apoptosis included cellular shrinkage, nuclear condensation, nuclear fragmentation, and formation of apoptotic bodies. […]
# Namalwa cell = assay: Cell apoptosis by flow cytometry, Namalwa cells; assay type: cell-based; conditions: 1 and 10 μM, 72 hours, in vitro
# Protocol: as §3, §4
# JeKo-1 cell = assay: Cell apoptosis by flow cytometry, JeKo-1 cells; assay type: cell-based; conditions: 0.1, 1, and 10 μM, 72 hours, in vitro
# Protocol: as §3, §4
# Mino cell = assay: Cell apoptosis by flow cytometry, Mino cells; assay type: cell-based; conditions: 1 and 10 μM, 72 hours, in vitro
# Protocol: as §3, §4
# Jeko-1 xenograft tumor = assay: In vivo tumor inhibition efficacy, JeKo-1 xenograft in NOD/SCID mice; conditions: 20 mg/kg daily oral gavage for 3 weeks
# Protocol: JeKo-1 cells were obtained from American Type Culture Collection (ATCC, Manassas, VA). cells were maintained in RPMI 1640 (Life Technologies, Grand Island, NY) supplemented with 10% heat-inactivated fetal bovine serum (56° C. for 30 minutes), penicillin (10,000 units/mL; Sigma, St Louis, Mo), streptomycin (10 mg/mL; Sigma), gentamicin (50 mg/mL; Life Technologies), amphotericin B (25 mg/mL; Sigma), and L-glutamine (200 mM, 29.2 mg/mL; Life Technologies). culture, as previously described (29, 30). JeKo-1 cells (10 million) were subcutaneously implanted into the flank of NOD/SCID mice. When the average tumor volume reached approximately 300 mm^3, the following treatments were administered in cohorts of 5 mice for each treatment: vehicle alone, 20 mg/kg ibrutinib, 20 mg/kg Compound 2, and 20 mg/kg Compound 161 was administered daily via oral gavage for 3 weeks. Tumor growth was monitored every other day by calipers and tumor volume was calculated using the equation: (½(length×width^2)).
# BTK [5] = target: T1, BTK; assay: Degradation of BTK protein in JeKo-1 cells (Western blot; DC50, Dmax); conditions: JeKo-1 mantle cell lymphoma cells, various concentrations, 24 hours
# Protocol: Namalwa, JeKo-1, or Mino cells were plated in 24-well plates at a density of 10^5 cells/well. Media containing various drug concentrations were added on the day following plating (day 0) and allowed to incubate for 24 hours for Western blot. Media with the tested compound was changed every other day. […] Media were removed and dishes were washed with 1×DPBS. Lysates were made by adding 150 μL of complete lysis solution and scraping cells into a 1.5 mL microcentrifuge tube. Lysates were placed on a rotisserie at 4° C. for 30 min and then spun at 4° C. at 12000 rcf for 10 min. Supernatants were assayed for protein content, snap-frozen, and stored a −80° C. if not run immediately. Then 50 μg of protein was subjected to Western blot protocol. […] They were then imaged on a LICOR infrared scanner.
# T1 sequence (Q06187 whole entry): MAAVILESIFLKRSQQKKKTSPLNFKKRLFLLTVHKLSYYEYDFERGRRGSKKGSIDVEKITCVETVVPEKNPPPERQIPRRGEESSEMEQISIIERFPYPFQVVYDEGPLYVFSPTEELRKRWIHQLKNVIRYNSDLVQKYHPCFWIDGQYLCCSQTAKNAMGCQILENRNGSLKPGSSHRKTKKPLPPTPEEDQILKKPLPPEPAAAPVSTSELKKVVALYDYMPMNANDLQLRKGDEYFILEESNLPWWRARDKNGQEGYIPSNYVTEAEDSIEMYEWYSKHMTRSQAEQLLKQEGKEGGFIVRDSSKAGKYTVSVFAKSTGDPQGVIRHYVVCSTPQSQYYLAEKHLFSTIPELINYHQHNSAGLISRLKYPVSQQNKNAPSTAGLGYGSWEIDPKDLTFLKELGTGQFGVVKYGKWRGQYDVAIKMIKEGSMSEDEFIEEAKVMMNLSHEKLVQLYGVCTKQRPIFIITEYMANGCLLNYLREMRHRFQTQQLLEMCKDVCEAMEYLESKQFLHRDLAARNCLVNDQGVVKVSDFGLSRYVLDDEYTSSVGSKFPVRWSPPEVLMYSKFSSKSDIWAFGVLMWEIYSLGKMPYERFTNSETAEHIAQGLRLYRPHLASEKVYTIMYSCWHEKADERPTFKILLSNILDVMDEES
SMILES,IC50 (Mino cells) [nM],IC50 (JeKo-1 cells) [nM],effect on primary human CLL cell viability [1],effect on primary human CLL cell viability [2],Dmax (BTK [3]) [%],DC50 (BTK [3]) [nM],degradation of BTK protein (BTK [4]),induction of cell apoptosis (MOLT-4 cell),induction of cell apoptosis (Namalwa cell),induction of cell apoptosis (JeKo-1 cell),induction of cell apoptosis (Mino cell),efficacy in inhibiting xenograft tumor growth (Jeko-1 xenograft tumor),degradation of BTK protein (BTK [5]),degradation of BTK protein at 10^−6 M (BTK [4]; 10^−6 M)
Nc1ncnc2c1c(-c1ccc(Oc3ccccc3)cc1)nn2C1CCN(CCOCCOCCN2CCN(c3ccc4c(c3)C(=O)N(C3CCC(=O)NC3=O)C4=O)CC2)CC1 (stereo not drawn) [Compound 1],1000 to 10000,1000 to 10000,dose-dependent effect,dose-dependent effect,> 90,10 to 50,dose-dependent degradation,–,–,–,–,–,–,–
"Nc1ncnc2c1c(-c1ccc(Oc3ccccc3)cc1)nn2C1CCN(CCOCCOCCN2CCN(c3ccc4c(c3)CN(C3CCC(=O)NC3=O)C4=O)CC2)CC1 (stereo not drawn) [Compound 2, 3-(5-(4-(2-(2-(2-(4-(4-amino-3-(4-phenoxyphenyl)-1H-pyrazolo(3,4-d)pyrimidin-1-yl)piperidin-1-yl)ethoxy)ethoxy)ethyl)piperazin-1-yl)-1-oxoisoindolin-2-yl)piperidine-2,6-dione]",< 1000,< 1000,dose-dependent effect,dose-dependent effect,> 90,< 10,dose-dependent degradation,induction of MOLT-4 cell apoptosis,induction of Namalwa cell apoptosis,induction of JeKo-1 cell apoptosis,induction of Mino cell apoptosis,inhibiting Jeko-1 xenograft tumor growth,dose-dependent degradation,–
"Nc1ncnc2c1c(-c1ccc(Oc3ccccc3)cc1)nn2[C@@H]1CCCN(C2CCN(C(=O)N3CCC(N4CCN(c5ccc6c(c5)C(=O)N(C5CCC(=O)NC5=O)C6=O)CC4)CC3)CC2)C1 (stereo partly drawn) [Compound 161, 5-(4-(1-((R)-3-(4-amino-3-(4-phenoxyphenyl)-1H-pyrazolo(3,4-d)pyrimidin-1-yl)-(1,4′-bipiperidine)-1′-carbonyl)piperidin-4-yl)piperazin-1-yl)-2-(2,6-dioxopiperidin-3-yl)isoindoline-1,3-dione]",< 1000,< 1000,–,–,> 90,10 to 50,dose-dependent degradation,–,–,–,–,inhibiting Jeko-1 xenograft tumor growth,–,degradation
